Laboratory results reported in PMC12563652 (International Journal of Molecular Sciences, 2025).
pIC50: −log10 of the molar value.

Experiments:
[1] = biological target: T1, α2B-adrenoceptor (Homo sapiens, UniProt P18089); test: α2B-adrenoceptor intrinsic activity, antagonist mode (AequoScreen); format: cell-based; details: n.a. = no activity at 10–5 M; read-out: α2B Ant IC50
T1 sequence (P18089 1-450): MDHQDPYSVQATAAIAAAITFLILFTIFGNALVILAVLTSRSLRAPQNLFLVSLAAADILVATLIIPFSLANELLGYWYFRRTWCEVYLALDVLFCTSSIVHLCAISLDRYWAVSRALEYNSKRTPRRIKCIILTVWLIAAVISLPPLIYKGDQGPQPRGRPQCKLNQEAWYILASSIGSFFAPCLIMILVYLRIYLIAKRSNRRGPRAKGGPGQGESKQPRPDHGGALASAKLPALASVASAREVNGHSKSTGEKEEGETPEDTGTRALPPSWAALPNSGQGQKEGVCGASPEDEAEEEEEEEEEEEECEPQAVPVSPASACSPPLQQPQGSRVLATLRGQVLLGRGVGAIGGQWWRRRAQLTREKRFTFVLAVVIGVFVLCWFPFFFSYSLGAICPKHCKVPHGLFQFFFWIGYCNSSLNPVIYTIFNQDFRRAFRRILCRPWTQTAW
Description: The determination of intrinsic activity will be performed in accordance with the manufacturer’s Aequoscreen methodology—Perkin Elmer.
The cell density in the 96-well format was 5000 cells per well. Cell preparation for the assay was performed according to the manufacturer’s instructions for AequoScreen (PerkinElmer, Waltham, MA, USA). […] The cells suspension was applied onto the ligands with the injectors of the POLARstar optima reader (BMG Labtech, Ortenberg, Germany). […] The concentration and dilution series having four replicates were prepared as instructed in the AequoScreen Starter Kit Manual (PerkinElmer, Waltham, MA, USA). The wells received cell injections along with either the standard agonist or the compounds being evaluated, while the POLARstar optima reader documented the emitted light over a duration of 20 s. In the antagonist evaluation, cells were administered (50 μL) into the assay plate alongside antagonist solutions (50 μL). A single concentration of agonist (oxymetazoline) was injected (50 μL, final concentration EC80) into the preincubated (15–20 min) plate with cells and antagonist, and the emitted light was recorded for 20 s.

[2] = tested on: C57BL/6 mice; test: Inhibition of gastric emptying (mouse model, phenol red); format: in vivo
Description: Fifty male C57BL/6 mice (22–27 g) were housed in standard cages while maintaining a 12:12-h light/dark cycle, with food and water available ad libitum. The experimental procedures were performed from 10:00 a.m. to 14:00 p.m.
The experiment was conducted according to Miyasaka et al. and Kotańska et al., with some minor modifications. Mice were subjected to a 20 h food deprivation and a 2 h water deprivation prior to testing. The animals received a vehicle (0.25 mL/mouse) alone or along with various compounds: JP-14 (10 mg/kg b. w.), RT (5 mg/kg body weight), metformin (100 mg/kg b. w.), or loperamide (reference compound; 10 mg/kg b. w.) via gastric gavage. Following a 45 min interval, phenol red (0.5 mL, 0.05% w/v) combined with glucose (1 g/kg body weight) was administered through the same route. Additionally, each group received an intraperitoneal injection of heparin (2500 U/mouse) 20 min prior to the collection of stomach contents. Seven mice treated with the vehicle were sacrificed immediately after the phenol red administration to serve as a standard control (representing 100% phenol red in the stomach at 0 min), establishing a baseline for maximum absorbance (100%). The leftover mice were sacrificed 30 min later. The stomachs were removed and homogenized using an OMNI homogenizer (OMNI International Company, Kennesaw, GA, USA), with 10 mL of 0.1 N NaOH. To 5 mL of homogenate, 0.5 mL of 20% w/v solution of trichloroacetic acid was incorporated to precipitate the proteins. Subsequently, the samples were centrifuged at 600× g for 15 min at a temperature of 20 °C, and 0.25 mL of supernatant was mixed with 1 mL of 0.5 N NaOH to achieve maximum color intensity. The concentration of phenol red was measured using spectrophotometry, with absorbance evaluated at a wavelength of 560 nm (MuLTISKAN.GO, Thermo Fisher Scientific Inc., Waltham, MA USA). For each mouse, the percentage of gastric emptying (GE %) was calculated using the following equation:(1) GE%=(Ac0−Ab)/(Ac0−Ac30)×100% where: Ac0 is the absorbance of the control gastric sample collected immediately after dye administration, and Ac30 is the absorbance of the control gastric sample collected 30 min after dye administration, i.e., Ac0–Ac30 = 100% gastric emptying.

[3] = tested on: Danio rerio larvae; test: Fructose-induced lipid disturbance in zebrafish larvae (Oil Red O); format: in vivo; details: 10 µg/mL with 4% fructose, 24 h
Description: Zebrafish larvae 4 dpf were incubated for another 24 h with 4% fructose (final solution) in embryo medium to induce metabolic disorders. Tested solutions (compounds in E3: JP-14 at concentration of 20 μg/mL or resveratrol of 40 μg/mL) were added to fructose solution (8% in E3). The final concentration of JP-14 was 10 μg/mL or resveratrol of 20 μg/mL. The control group was incubated with E3 only. Incubation was carried out in a 6-well plate (10 larvae/well) to which 3 mL of liquid was added per well. Larvae were then collected, euthanized with tricaine, and transferred to 4% formaldehyde solution. After 24 h, larvae were washed 3 times with PBS (Sigma-Aldrich, Germany) and stained for neutral lipids, similar to previous studies. Larvae incubated for 1 h in a solution of 0.25% oil red O (ORO, Merck, Darmstadt, Germany) in 60% isopropanol (Merck, Germany). The samples were then rinsed three times with 60% isopropanol and washed 6 times with PBS, then imaged on a microscope (OPTA-TECH MN16, Warszawa, Poland) and analyzed with the ImageJ FIJI program. […] Next, the samples were centrifuged (10 min, 3000 rpm, MPW-260R, MPW Med Instruments, Warszawa, Poland), and the amount of dye in supernatant was determined spectrophotometrically (MuLTISKAN.GO, Thermo Fisher Scientific Inc. Waltham, MA, USA) at a wavelength of 495 nm.

Structure (SMILES): [H]/N=C(\N)NN=Cc1c(Cl)cncc1Cl [JP-14, (E)-2-((3,5-Dichloropyridin-4-yl)Methylene)Hydrazine-1-Carboximidamide]
- pIC50 [1]: 6.21
- reduction of the effect of JP-14 on gastric emptying by RTI-7470-44 ([2]; JP-14 10 mg/kg + RTI-7470-44 5 mg/kg b.w.): about 40%
- percentage inhibition of gastric emptying ([2]; JP-14 10 mg/kg b.w. combined with RTI-7470-44 5 mg/kg b.w.): about 25%
- percentage inhibition of gastric emptying ([2]; intragastric, 10 mg/kg b.w.): about 66%
- fructose-induced yolk enlargement [3]: partially attenuated
